Test results published in patent publication US4172148A, “Ruminant feeds containing trichloroethyl esters of essential amino acids” (E. R. Squibb & Sons, Inc., priority 1978, dated 1979).

Key:
growing lambs = test: body weight gain and feed efficiency of growing lambs (Examples 9-11); format: in vivo, lambs (sheep)
Method: A test was conducted to determine if feeding L-phenylalanine, 2,2,2-trichloroethyl ester to growing lambs was effective in improving growth and feed efficiency. Wether and ewe lambs were divided into groups of 30 lambs each. They were acclimated to their pens for 2 weeks prior to treatment.
The feed supplied to the animals had the following composition
The test compound in an amount of 0.0055% (50 g/ton) was admixed with the above feed composition.
Body weights and feed consumption were recorded at 0, 2, 4 and 6 weeks. Feed efficiencies were calculated.
The test procedure of Example 9 was followed to test the growth effect and feed efficiency of glycine 2,2,2-trichloroethyl ester on growing lambs. The feed composition of Example 9 was used but contained glycine 2,2,2-trichloroethyl ester in an amount of 0.0044% (40 g/ton). There were 44 lambs in the control group receiving the feed composition without additive and 42 lambs receiving the feed composition containing the amino acid ester.
The test procedure of Example 9 was followed to test the growth effect and feed efficiency of L-phenylalanine 2,2,2-trichloroethyl ester on growing lambs. The feed composition of Example 9 was used but contained 0.0088% (80 g/ton) of this amino acid ester. There were 59 lambs in the control group fed the feed without additive and 58 lambs in the group fed the feed composition containing the test compound.

[1] = test system: volatile fatty acid concentrations in the in vitro rumen fermentation; test: in vitro rumen fermentation, volatile fatty acids, alfalfa hay:concentrate 3:1 (Examples 3 and 12); set-up: species or system sheep; details: for Acetic acid / Acetic:propionic / Butyric acid / Propionic acid / Total acids: 6 h, 39° C.
Method: A one gram sample of substrate ground through a 1 mm screen is weighed into 100 ml. lipless beakers equipped with gas-release valves. The substrate consists of alfalfa hay containing approximately 16% protein and a concentrate containing ground corn 60.7%, alfalfa meal 17.5%, molasses 10.0%, soybean meal 5.3%, wheat bran 5.0%, trace mineralized salt 1.0%, limestone 0.5% and Vitamin D 300,000 I.U./ton, mixed in the proportion 3:1. The experimental composition is added to the substrate. 25 ml. of filtered rumen fluid obtained from fasted sheep maintained on feed the same as the above mentioned substrate and 25 ml. of McDougal's buffer solution serve as the inoculum. The buffer solution is as follows:
The fermentation mixture is flushed with carbon dioxide and the vessel is capped with a gas release valve. The fermentation vessel (beaker) is placed in a water bath and incubated at 39° C.±1° for six hours. The sample is mixed every hour by shaking the beaker.
At the end of the 6-hour fermentation period the sample is strained through 4 layers of cheesecloth into a sample bottle containing 1 ml. saturated solution of mercuric chloride. The sample is frozen immediately until analyzed for the volatile fatty acids (VFA) (mg/100 ml.). Prior to analysis, each sample is acidified with 30% phosphoric acid and then analyzed by gas chromatography using a column containing 5% nonylphenoxypolyoxyethylene ethanol plus 0.5% phosphoric acid on 100-120 mesh Gas Chrom S. The acids determined are acetic, propionic, butyric, isobutyric, valeric and isovaleric acids. Total VFA is considered as the addition of these acids. The ratio of acetic: propionic (A:P) is obtained by dividing the concentration of acetic acid by that of propionic acid.
The effect of various compounds alone on the volatile fatty acid concentrations was determined by the procedure of Example 3. […] A direct comparison between phenylalanine and phenylalanine trichloroethyl ester is provided.

[2] = test system: volatile fatty acid concentrations in the rumen of fistulated wethers; test: volatile fatty acid concentrations in the rumen of fistulated wethers, 454 g concentrate and 454 g chopped mixed hay (Example 6); format: in vivo, sheep; details: for Acetic:propionic ratio / Other acids (%) / Propionic acid (%) / Butyric acid (%) / Acetic acid (%) / Total acids: day 7
Text: Mature sheep (wethers) fitted with permanent rumen fistulae were used to determine the effect of L-phenylalanine, 2,2,2-trichloroethyl ester on volatile fatty acid concentrations in vivo (3 wethers per treatment). The animals were individually penned and fed 227 g. of concentrate (described in Example 3) and 680 g. of alfalfa hay once daily. The test compound was admixed with the concentrate. The sheep were medicated for 7 days. Samples for analysis were obtained before (Day 0) and after treatment (Day 7) approximately 6 hours after feeding.
An experiment similar to that described in Example 5 was performed except that the animals (3 per treatment) were fed 454 g. of concentrate (described in Example 3) and 454 g. of chopped mixed (grasses) hay.

With `Br.N[C@@H](Cc1ccccc1)C(=O)OCC(Cl)(Cl)Cl` [L-Phenylalanine 2,2,2-trichloroethyl ester, hydrobromide] the Body weight gain (growing lambs; 0.0055% (50 g/ton) in feed, 0-2 wks., control 2.47) was 2.97 kg, the Body weight gain (growing lambs; 0.0055% (50 g/ton) in feed, 0-4 wks., control 5.80) was 5.82 kg and the Feed efficiency (growing lambs; 0.0055% (50 g/ton) in feed, 0-6 wks., control 0.190) was 0.196 gain/unit of feed. For the same compound, the Body weight gain (growing lambs; 0.0055% (50 g/ton) in feed, 0-6 wks., control 8.51) was 9.08 kg, the “effect on feed efficiency (in words)” value (growing lambs; 0.0055% (50 g/ton) in the feed) was “improving feed efficiency” and the “effect on gains (in words)” value (growing lambs; 0.0055% (50 g/ton) in the feed) was “effective in increasing gains”. The Weight gain (growing lambs; 0.0088% (80 g/ton) in feed, 0-2 wks, control 1.50) was 1.49 kg, the Weight gain (growing lambs; 0.0088% (80 g/ton) in feed, 0-4 wks, control 4.44) was 4.63 kg and the Feed efficiency (growing lambs; 0.0088% (80 g/ton) in feed, 0-6 wks, control 0.160) was 0.168 gain/feed. For the same compound, the Weight gain (growing lambs; 0.0088% (80 g/ton) in feed, 0-6 wks, control 7.56) was 7.81 kg, the Acetic acid ([1]; 0.02 mg/ml) was 95 % of control and the “Acetic:propionic” value ([1]; 0.02 mg/ml) was 83 % of control. For the same compound, the Butyric acid ([1]; 0.02 mg/ml) was 106 % of control, the Propionic acid ([1]; 0.02 mg/ml) was 115 % of control and the Total acids ([1]; 0.02 mg/ml) was 101 % of control. For the same compound, the Acetic acid ([1]; 0.04 mg/ml) was 85 % of control, the “Acetic:propionic” value ([1]; 0.04 mg/ml) was 77 % of control and the Butyric acid ([1]; 0.04 mg/ml) was 114 % of control. For the same compound, the Propionic acid ([1]; 0.04 mg/ml) was 111 % of control, the Total acids ([1]; 0.04 mg/ml) was 95 % of control and the Acetic acid ([1]; 0.08 mg/ml) was 95 % of control. For the same compound, the “Acetic:propionic” value ([1]; 0.08 mg/ml) was 84 % of control, the Butyric acid ([1]; 0.08 mg/ml) was 108 % of control and the Propionic acid ([1]; 0.08 mg/ml) was 112 % of control. The Total acids ([1]; 0.08 mg/ml) was 100 % of control, the Acetic acid ([1]; 0.1 mg/ml) was 92 % of control and the “Acetic:propionic” value ([1]; 0.1 mg/ml) was 74 % of control. For the same compound, the Butyric acid ([1]; 0.1 mg/ml) was 116 % of control, the Propionic acid ([1]; 0.1 mg/ml) was 124 % of control and the Total acids ([1]; 0.1 mg/ml) was 102 % of control. The Acetic acid ([1]; 0.2 mg/ml) was 90 % of control, the “Acetic:propionic” value ([1]; 0.2 mg/ml) was 75 % of control and the Butyric acid ([1]; 0.2 mg/ml) was 114 % of control. The Propionic acid ([1]; 0.2 mg/ml) was 120 % of control, the Total acids ([1]; 0.2 mg/ml) was 100 % of control and the Acetic acid ([1]; 0.4 mg/ml) was 83 % of control. For the same compound, the “Acetic:propionic” value ([1]; 0.4 mg/ml) was 73 % of control, the Butyric acid ([1]; 0.4 mg/ml) was 115 % of control and the Propionic acid ([1]; 0.4 mg/ml) was 114 % of control. The Total acids ([1]; 0.4 mg/ml) was 94 % of control, the “effect on acetic to propionic acid ratio (in words)” value ([1]; at all levels (0.02-0.4 mg/ml)) was “decreasing the acetic to propionic acid ratio” and the “effect on propionic acid concentrations (in words)” value ([1]; at all levels (0.02-0.4 mg/ml)) was “effective in increasing the propionic acid concentrations”. The “Acetic:propionic ratio” value ([2]; 200 mg/head/day, pre-treatment 3.38, control day 7 3.54) was 2.65, the “Other acids (%)” value ([2]; 200 mg/head/day, pre-treatment 5.2, control day 7 6.6) was 8.2% and the “Propionic acid (%)” value ([2]; 200 mg/head/day, pre-treatment 17.5, control day 7 16.2) was 19.0%. The “Butyric acid (%)” value ([2]; 200 mg/head/day, pre-treatment 18.4, control day 7 20.0) was 22.5%, the “Acetic acid (%)” value ([2]; 200 mg/head/day, pre-treatment 58.8, control day 7 57.3) was 50.3% and the Total acids ([2]; 200 mg/head/day, pre-treatment 731, control day 7 687) was 663 mg/100 ml. For the same compound, the “Acetic:propionic ratio” value ([2]; 500 mg/head/day, pre-treatment 3.43, control day 7 3.54) was 2.18, the “Other acids (%)” value ([2]; 500 mg/head/day, pre-treatment 6.7, control day 7 6.6) was 9.8% and the “Propionic acid (%)” value ([2]; 500 mg/head/day, pre-treatment 16.8, control day 7 16.2) was 21.1%. For the same compound, the “Butyric acid (%)” value ([2]; 500 mg/head/day, pre-treatment 19.0, control day 7 20.0) was 23.5%, the “Acetic acid (%)” value ([2]; 500 mg/head/day, pre-treatment 57.5, control day 7 57.3) was 45.7% and the Total acids ([2]; 500 mg/head/day, pre-treatment 851, control day 7 687) was 734 mg/100 ml. The “effect on acetic:propionic ratio (in words)” value ([2]; fistulated wethers, 7 days) was “decreasing the acetic:propionic ratio” and the “effect on proportion of propionic acid (in words)” value ([2]; fistulated wethers, 7 days) was “effective in increasing the proportion of propionic acid”.
